Entries after “also recorded” stand apart in the source; their conditions may differ.
What was measured:
Na/K-ATPase α1 mRNA [1] = assay: Na/K-ATPase α1 mRNA by RT-PCR, DU145 cells; type: cell-based, human; details: 10 nM ouabain, 24 h
Procedure: (§1) Total RNA was extracted and applied for RT-PCR to probe Na/K-ATPase α1 as described in the Experimental Procedures section.
(§2) Quantitative RT-PCR: The cells were seeded in 6-cm dishes and serum-starved for 24 h after the confluence reached 90%. […] Total RNA was extracted using TRIzol and subjected to quantitative RT-PCR analysis. The assays were performed on the AB 7500 real time PCR system with the following protocol: 1 cycle (6 min at 95° C.), 40 cycles (30 s at 95° C., 30 s at 52° C., 30 s at 72° C., and 1 min at 85° C.), followed by a dissociation stage to ensure a single product. The reactions are in a total volume of 25 μl, including 1.25 µl of Sybr Green (Invitrogen), 0.125 µl of DNA polymerase (Denville), 2.5 µl of dNTP (Invitrogen), 10 ng of cDNA. Primer pairs were used at 5 μM concentration, and the sequences are:
(§3) The relative Na/K-ATPase al gene expression was calculated by comparative threshold (CT) method (ΔΔCT). To normalize the difference amounts of cDNA, GAPDH was used as an internal control.

Na/K-ATPase α1 [2] = target: T1, Na/K-ATPase α1 (Sus scrofa, UniProt P05024); assay: Na/K-ATPase α1 expression, caveolin-1 knock-down C2-9 cells; type: cell-based, pig; details: C2-9 caveolin-1 knockdown cells, 5 and 10 nM ouabain, 72 h
T1 construct: endogenous in cells; host or cells: LLC-PK1 (ATCC) and its caveolin-1 knock-down line C2-9

Akt [3] = assay: Akt phosphorylation (pAkt) by Western blot, DU145 cells; type: cell-based, human; details: ouabain 15 min
Text: The pAkt was probed by Western blot.

LLC-PK1 cells = assay: MTT cell growth assay, LLC-PK1 cells; type: cell-based, pig
Procedure: FIG. 1A: LLC-PK1 cells, BT20 cells, and DU145 cells were subcultured in 96-well plates (10,000 cells/well) and serum starved. […] Cells were solublized by adding 100 μl/well detergent provided by ATCC after 90 min of incubation and OD570 was then measured.
Cell growth was then measured using MTT assay.
(§4) MTT assay for measuring cell proliferation: Cells were sub-cultured in 96 well plates at 10,000 cells/well in 100 μl culture medium. […] Ten μl MTT reagent (3-4,5-dimethylthiazol-2-yl)-2,5-diphenyltetrazolium bromide) was added to each well for 90 min. The formazan crystal was dissolved with detergent and the OD value was measured at 570 nm.

Na/K-ATPase α1 mRNA [4] = assay: Na/K-ATPase α1 mRNA by RT-PCR, LLC-PK1 cells; type: cell-based, pig; details: 10 nM ouabain, 24 h
Procedure: as §1, §2, §3

[5] = target: T2, Na/K-ATPase in the plasma membrane (Sus scrofa, UniProt P05024); assay: 3H-ouabain binding after ouabain pre-treatment, LLC-PK1 cells; type: cell-based, pig; details: ouabain up to 10 nM, 72 h
T2 construct: endogenous in cells; host or cells: LLC-PK1 (intact cells)
Procedure: The cells were washed and 3H-ouabain were performed as described herein. * p<0.05, ** p<0.01
To assess the functional consequence of these changes in α1 expression, the inventors measured the number of functional Na/K-ATPase in the plasma membrane.
Afterwards, cells were washed with serum-free medium and subjected to 3H-ouabain binding assay. Briefly, cells were incubated in K+-free Kreb's solution (NaCl 137 mM; KCl 0 mM; CaCl2 2.8 mM; NaH2PO4 0.6 mM; MgSO4 1.2 mM; dextrose; 10 mM; Tris 15 mM; pH7.4) for 15 min, and then exposed to 100 nM 3H-ouabain for 30 min at 37° C. At the end of incubation, the cells were washed 3 times with ice-cold K+-free Kreb's solution, solubilized in 0.1M NaOH-0.2% SDS, and counted in a scintillation counter for 3H-ouabain. […] Paralleled plates were used for counting cell numbers. 3H-ouabain binding data were calculated as binding sites per cell.

Na/K-ATPase α1 [6] = target: T3, Na/K-ATPase α1 (Mus musculus, UniProt Q8VDN2); assay: Na/K-ATPase α1 expression, SYF cells rescued by c-Src; type: cell-based; details: 0.5 and 1.0 μM ouabain
T3 construct: endogenous in cells; host or cells: SYF cells; SYF cells rescued by c-Src
Text: (§5) To further understand the molecular mechanism of ouabain-induced up-regulation of α1, the inventors first addressed the role of Src.

A4-11 cells = assay: MTT cell growth assay, Na/K-ATPase knock-down A4-11 cells; type: cell-based, pig; details: ouabain, 16 h
Procedure: as §4

Na/K-ATPase α1 [7] = target: T3, Na/K-ATPase α1; assay: Na/K-ATPase α1 expression, SYF cells; type: cell-based; details: SYF cells (Src, Yes, Fin knocked out), 0.5 and 1.0 μM ouabain
Text: as §5

Na/K-ATPase α1 [8] = target: T4, Na/K-ATPase α1 (Homo sapiens, UniProt P05023); assay: Na/K-ATPase α1 expression by Western blot, DU145 cells; type: cell-based; parameters: endogenous in cells; host or cells: BT20, DU145, MDA-MB-435s; details: ouabain 24 h or 72 h exposure
Na/K-ATPase α1 mRNA [9] = assay: Na/K-ATPase α1 mRNA by RT-PCR, BT20 cells; type: cell-based, human; details: 10 nM ouabain, 24 h
Procedure: as §1, §2, §3

Na/K-ATPase α1 [10] = target: T4, Na/K-ATPase α1; assay: Na/K-ATPase α1 expression by Western blot, BT20 cells; type: cell-based; parameters: endogenous in cells; host or cells: BT20, DU145, MDA-MB-435s
Na/K-ATPase α1 [11] = target: T4, Na/K-ATPase α1; assay: Na/K-ATPase α1 endocytosis by confocal immunostaining, DU145 cells; type: cell-based; parameters: endogenous in cells; host or cells: DU145; details: 10 nM ouabain
Procedure: Na/K-ATPase al was immunostained and visualized using Leica confocal microscope. The red arrows indicate the endocytosed vesicles containing Na/K-ATPase α1.
The cells were fixed with ice-cold methanol for 15 min and blocked with Signal Enhancer from Invitrogen. Monoclonal anti-Na/K-ATPase α1 antibody was then incubated with the cells overnight at 4° C. After 3 washes, a secondary Alexa 488-conjugated anti-mouse antibody was added and incubated for 2 h at room temperature. The coverslip was washed, mounted and imaged using a Leica confocal microscope.

Akt [12] = assay: Akt phosphorylation (pAkt) by Western blot, BT20 cells; type: cell-based, human; details: ouabain 15 min

In the case of `C[C@@H]1O[C@@H](O[C@H]2C[C@@H](O)[C@]3(CO)[C@H]4[C@H](O)C[C@]5(C)[C@@H](C6=CC(=O)OC6)CC[C@]5(O)[C@@H]4CC[C@]3(O)C2)[C@H](O)[C@H](O)[C@H]1O` [ouabain], the “levels of α1 mRNA” value (Na/K-ATPase α1 mRNA [1]) is reported as “no effect on levels of α1 mRNA”, the “ouabain-induced increases in α1 expression” value (Na/K-ATPase α1 [2]) is reported as “completely abolished ouabain-induced increases in α1 expression” and the Akt phosphorylation (Akt [3]) is reported as “failed to do so”. The “cell growth with ouabain in rapamycin pre-treated cells (MTT)” value (LLC-PK1 cells; LLC-PK1 cells pre-treated with rapamycin, 10 nM ouabain) was “significant inhibition of cell growth; also recorded: significant inhibition of cell proliferation”, the “effect on cell growth (MTT)” value (LLC-PK1 cells; LLC-PK1 cells, ouabain 1 to 50 nM, 24 h) was “stimulated cell growth” and the “levels of α1 mRNA” value (Na/K-ATPase α1 mRNA [4]) was “no effect on levels of α1 mRNA”. For the same compound, the “number of 3H-ouabain binding sites (functional plasma membrane Na/K-ATPase)” value [5] was “barely changed the number of binding sites”, the “induction of α1 expression” value (Na/K-ATPase α1 [6]) was “three-fold induction” and the “growth stimulation (MTT)” value (A4-11 cells) was “No growth stimulation was detected”. For the same compound, the “ouabain-induced α1 expression” value (Na/K-ATPase α1 [7]) was “completely blocked ouabain-induced α1 expression”, the “cellular amount of Na/K-ATPase α1” value (Na/K-ATPase α1 [8]) was “reduced the cellular amount of α1” and the “levels of α1 mRNA” value (Na/K-ATPase α1 mRNA [9]) was “no effect on levels of α1 mRNA”. For the same compound, the “cellular amount of Na/K-ATPase α1” value (Na/K-ATPase α1 [10]; BT20 cells, ouabain 24 h or 72 h exposure) was “reduced the cellular amount of α1”, the “Na/K-ATPase α1 expression, 72 h versus 24 h” value (Na/K-ATPase α1 [10]; BT-20 cells, after 72 h of ouabain exposure) was “further reduction in al expression” and the “endocytosis of Na/K-ATPase α1 (α1-positive vesicles)” value (Na/K-ATPase α1 [11]) was “many al-positive vesicles were accumulated”. The Akt phosphorylation (Akt [12]) was “failed to do so”.
